How the values were obtained:
FGFR3 enzyme = FGFR3 enzyme (Homo sapiens (Human), UniProt P22607); assay: FGFR Enzymatic Assay (peptide phosphorylation, FRET), FGFR3; type: biochemical; conditions: IC50 ratio showing FGFR3 selectivity; pre-incubated for 4 hours
Procedure: (§1) The inhibitor potency of the exemplified compounds was measured in an enzyme assay that measures peptide phosphorylation using FRET measurements to detect product formation. Inhibitors were serially diluted in DMSO and a volume of 0.5 μL was transferred to the wells of a 384-well plate.
(§2) GraphPad prism3 was used to analyze the data.

FGFR4 = FGFR4 (Homo sapiens (Human), UniProt P22455); assay: FGFR Enzymatic Assay (peptide phosphorylation, FRET), FGFR4; type: biochemical
FGFR4, sequence (P22455 22-802): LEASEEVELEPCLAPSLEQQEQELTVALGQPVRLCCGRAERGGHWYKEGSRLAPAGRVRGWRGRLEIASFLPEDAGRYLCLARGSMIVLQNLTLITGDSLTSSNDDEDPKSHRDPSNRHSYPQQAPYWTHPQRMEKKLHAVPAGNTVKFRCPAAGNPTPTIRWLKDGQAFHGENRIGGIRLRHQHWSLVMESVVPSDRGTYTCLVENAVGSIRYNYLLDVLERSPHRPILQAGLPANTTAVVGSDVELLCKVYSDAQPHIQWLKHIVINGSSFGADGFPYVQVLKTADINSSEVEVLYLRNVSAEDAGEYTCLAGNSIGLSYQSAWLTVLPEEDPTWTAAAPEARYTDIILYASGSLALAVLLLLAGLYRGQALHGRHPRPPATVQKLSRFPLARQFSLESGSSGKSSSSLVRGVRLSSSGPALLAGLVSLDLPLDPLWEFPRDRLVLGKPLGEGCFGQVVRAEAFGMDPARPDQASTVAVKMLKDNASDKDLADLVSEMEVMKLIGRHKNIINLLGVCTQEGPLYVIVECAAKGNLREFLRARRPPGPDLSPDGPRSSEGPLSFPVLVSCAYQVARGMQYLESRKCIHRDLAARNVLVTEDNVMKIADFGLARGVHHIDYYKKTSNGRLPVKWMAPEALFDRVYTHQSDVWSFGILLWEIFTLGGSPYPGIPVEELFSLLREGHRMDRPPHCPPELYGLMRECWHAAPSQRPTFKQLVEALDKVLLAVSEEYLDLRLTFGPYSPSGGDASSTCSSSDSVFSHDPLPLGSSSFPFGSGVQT
Procedure: as §1
The enzymes were purchased from Millipore or Invitrogen.
as §2

[1] = IC50 ratio showing FGFR4 selectivity, pre-incubated for 4 hours
[2] = ratio of IC50 data showing FGFR4 selectivity, pre-incubated for 5 to 10 minutes

FGFR3 enzyme, sequence (P22607 23-806): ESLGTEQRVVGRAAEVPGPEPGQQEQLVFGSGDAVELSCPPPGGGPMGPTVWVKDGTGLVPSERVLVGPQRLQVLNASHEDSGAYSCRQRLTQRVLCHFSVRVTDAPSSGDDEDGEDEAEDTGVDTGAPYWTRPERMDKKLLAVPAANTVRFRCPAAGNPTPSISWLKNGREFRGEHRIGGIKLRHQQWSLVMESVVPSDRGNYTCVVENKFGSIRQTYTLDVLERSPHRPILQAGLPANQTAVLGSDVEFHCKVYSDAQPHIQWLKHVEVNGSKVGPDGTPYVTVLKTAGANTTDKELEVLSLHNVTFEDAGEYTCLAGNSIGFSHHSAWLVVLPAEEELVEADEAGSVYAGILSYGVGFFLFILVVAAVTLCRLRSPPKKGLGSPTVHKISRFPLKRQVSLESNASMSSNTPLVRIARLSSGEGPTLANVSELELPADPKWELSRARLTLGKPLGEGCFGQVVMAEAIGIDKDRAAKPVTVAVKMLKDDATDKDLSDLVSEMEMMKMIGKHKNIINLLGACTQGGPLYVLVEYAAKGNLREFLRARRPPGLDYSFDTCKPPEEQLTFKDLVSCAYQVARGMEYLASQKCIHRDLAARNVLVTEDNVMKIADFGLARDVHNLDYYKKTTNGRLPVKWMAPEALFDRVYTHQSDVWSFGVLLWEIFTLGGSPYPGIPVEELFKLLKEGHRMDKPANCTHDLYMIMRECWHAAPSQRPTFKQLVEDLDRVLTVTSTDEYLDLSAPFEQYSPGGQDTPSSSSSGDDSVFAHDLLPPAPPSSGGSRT

| Compound | FGFR1/FGFR3 (FGFR3 enzyme) | FGFR1/FGFR4 (FGFR4; [1]) | FGFR2/FGFR4 (FGFR4; [1]) | FGFR3/FGFR4 (FGFR4; [1]) | FGFR1/FGFR4 (FGFR4; [2]) | FGFR2/FGFR4 (FGFR4; [2]) | FGFR3/FGFR4 (FGFR4; [2]) |
| --- | --- | --- | --- | --- | --- | --- | --- |
| COc1cc(OC)c(F)c(N2Cc3cnc(-c4cc(N)cnc4C)cc3C3(CC3)C2=O)c1F [Example 7, 6′-(5-amino-2-methylpyridin-3-yl)-2′-(2,6-difluoro-3,5-dimethoxyphenyl)-1′H-spiro[cyclopropane-1,4′-[2,7]naphthyridin]-3′(2′H)-one] | >1 | >50 | >25 | >25 | >25 | >10 | >10 |
| COc1cc(OC)c(F)c(N2Cc3cnc(-c4cncc(C#N)c4)cc3C3(CC3)C2=O)c1F [Example 8, 5-(2′-(2,6-difluoro-3,5-dimethoxyphenyl)-3′-oxo-2′,3′-dihydro-1′H-spiro[cyclopropane-1,4′-[2,7]naphthyridine]-6′-yl)nicotinonitrile] | >5 | >50 | >10 | >10 | >50 | >10 | >10 |
| COc1cc(OC)c(F)c(N2Cc3cnc(-c4cncc(-n5ccnc5)c4)cc3C3(CC3)C2=O)c1F [Example 12, 6′-(5-(1H-imidazol-1-yl)pyridin-3-yl)-2′-(2,6-difluoro-3,5-dimethoxyphenyl)-1′H-spiro[cyclopropane-1,4′-[2,7]naphthyridin]-3′(2′H)-one] | >3 | >50 | >25 | >10 | >50 | >25 | >20 |
| COc1cncc(-c2cc3c(cn2)CN(c2c(F)c(OC)cc(OC)c2F)C(=O)C32CC2)c1 [Example 10, 2′-(2,6-difluoro-3,5-dimethoxyphenyl)-6′-(5-methoxypyridin-3-yl)-1′H-spiro[cyclopropane-1,4′-[2,7]naphthyridin]-3′(2′H)-one] | >1 | >25 | >25 | >10 | >25 | >10 | >10 |
| COc1cc(OC)c(F)c(N2Cc3cnc(-c4cncc(Cl)c4)cc3C3(CC3)C2=O)c1F [Example 11, 6′-(5-chloropyridin-3-yl)-2′-(2,6-difluoro-3,5-dimethoxyphenyl)-1′H-spiro[cyclopropane-1,4′-[2,7]naphthyridin]-3′(2′H)-one] | >1 | >25 | >25 | >10 | >50 | >20 | >25 |
